The values below come from PMC3075623 (2011).

In the assay the target is T1, ABL2 (ABL-related gene, ARG) (Homo sapiens, UniProt P42684).
T1 sequence (P42684 279-546): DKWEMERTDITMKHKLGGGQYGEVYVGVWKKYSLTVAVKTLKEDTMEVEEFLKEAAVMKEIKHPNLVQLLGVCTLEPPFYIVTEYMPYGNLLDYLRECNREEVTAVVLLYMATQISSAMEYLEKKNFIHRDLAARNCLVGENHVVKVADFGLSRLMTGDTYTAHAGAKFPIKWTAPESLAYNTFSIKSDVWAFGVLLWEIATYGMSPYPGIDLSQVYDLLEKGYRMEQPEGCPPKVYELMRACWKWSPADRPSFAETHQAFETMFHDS
As to the kind of experiment: cocrystal structure. The class given is binding.

`Nc1nc(Nc2ccc(S(N)(=O)=O)cc2)nn1C(=S)Nc1c(F)cccc1F` [compound 2, 5-amino-3-((4-(aminosulfonyl)phenyl)amino)-N-(2,6-difluorophenyl)-1H-1,2,4-triazole-1-carbothioamide]: the cocrystal structure entry is “The ligand is bound to the protein by hydrogen bonds to the backbone carbonyls of residues Glu362 and Met364”.
